Reference: publication PMC8596843, “Platinum Cyclooctadiene Complexes with Activity against Gram‐positive Bacteria” (Chemmedchem, 2021)
Marks after values point to notes of the source that are not given here.

Experiments:
[1] = tested on: Escherichia coli ATCC 25922; test: Antibacterial MIC assay; assay type: cell-based; conditions: CO‐ADD screening
Procedure: (§1) All compounds submitted to CO‐ADD are initially screened against five bacterial strains (Staphylococcus aureus (MRSA), E. coli, Klebsiella pneumoniae, Pseudomonas aeruginosa, Acinetobacter baumannii) and two fungal strains (Candida albicans, Cryptococcus neoformans) at a single concentration (32 μg/mL or 20 μM) performed as a high‐throughput primary screening.[[11], [17a]] Any compounds that show significant growth inhibition against any of the tested strains at this step are then evaluated in a dose‐response assay against these same strains. […]
(§2) Smiles: C1C=CCCC(=CC1)C1=CCCC=CCC1.C[Pt]C.C[Pt]C […]
(§3) ATCC strains were sourced from the American Type Culture Collection and NRS strains from NARSA (Network on Antimicrobial Resistance in Staphylococcus aureus) via BEI Resources (www.beiresources.org), with clinical MSSA and MRSA isolates from Prof Graeme Nimmo, Queensland […]
(§4) Health Central Pathology. […]
(§5) Antibacterial minimum inhibitory concentration (MIC) assay
(§6) Compound Assay Plate Preparation: Compounds were dissolved in DMSO at 10mM (CO-ADD screening) or 4 mM (follow up screening) and were plated in a 2-fold dose response from 20 to 0.156 µM or 200 to 0.006 µM respectively, with a maximum of 0.5% or 1% DMSO, final in the assay […]
(§7) plated in a 2-fold dose response from 200 to 0.006 µM, with a maximum of 1 % DMSO, final in the assay concentration. (in-house screening)
(§8) For all the bacterial assays, each strain was cultured in Cation-adjusted Mueller Hinton broth (CAMHB; Bacto Laboratories 212322) at 37 °C overnight. A sample of each culture was then diluted 40-fold in fresh CAMHB and incubated at 37 °C for 1.5–3 h. The resultant mid-log phase cultures were diluted with CAMHB (CFU mL−1 measured by OD600), then added to each well of the compound-containing plates (384-well non-binding surface (NBS) plates; Corning CLS3640), giving a cell density of 5 × 10^5 CFU mL−1 and a total volume of 50 μL. Plates were covered and incubated at 37 °C for 18 h without shaking. Inhibition of bacterial growth was determined measuring absorbance at 600 nm (OD600), using media only as negative control and bacteria without inhibitors as positive control. MIC values were determined as the lowest concentration at which the growth was inhibited at ≥80%. Colistin sulfate (Sigma C4461) and vancomycin HCl (Sigma 861987) were used as internal controls on each plate for Gram-negative and Gram-positive bacteria, respectively. […]

[2] = tested on: Pseudomonas aeruginosa ATCC 27853; test: Antibacterial MIC assay; assay type: cell-based; conditions: CO‐ADD screening
Procedure: as §1, §2, §3, §4, §5, §6, §7, §8

[3] = tested on: Acinetobacter baumannii ATCC 19606; test: Antibacterial MIC assay; assay type: cell-based; conditions: CO‐ADD screening
Procedure: as §1, §2, §3, §4, §5, §6, §7, §8

[4] = tested on: Cryptococcus neoformans H99 ATCC 208821; test: Antifungal MIC (CO-ADD screening); assay type: cell-based
Procedure: (§9) InChIKey: PHIWIZAHOBWKFJ-HPCBIOCFSA-N
(§10) Health Central Pathology. Candida albicans (ATCC 90028, NCCLS 11), Cryptococcus neoformans
as §5
(§11) concentration. (in-house screening)
(§12) Bacto Laboratories 212322) at 37 °C overnight.

[5] = tested on: Candida albicans ATCC 90028; test: Antifungal MIC (CO-ADD screening); assay type: cell-based
Procedure: as §9, §10, §5, §11, §12

[6] = tested on: Klebsiella pneumoniae ATCC 700603 (ESBL SHV‐18)
Procedure: as §1, §2, §3, §4, §5, §6, §7, §8

[7] = tested on: Staphylococcus aureus VRS 1, VRSA (VanA); test: Antibacterial MIC assay, Gram-positive panel; assay type: cell-based; conditions: n=4
From the text: (§13) Bis(dimethyl-η4)-((1Z,1'E,5Z,5'E)-(1,1'-bi(cyclooctadiene))diplatinum(II) (Pt14) Smiles: C1C=CCCC(=CC1)C1=CCCC=CCC1.C[Pt]C.C[Pt]C
as §9
(§14) Link to selected data that was repeated to approve the identity of the compounds: https://dx.doi.org/10.14272/PHIWIZAHOBWKFJ-HPCBIOCFSA-N.1
as §3, §4, §5, §6, §7, §8

[8] = tested on: Staphylococcus aureus ATCC 25923, MSSA; test: Antibacterial MIC assay, Gram-positive panel; assay type: cell-based; conditions: n=4
From the text: as §13, §9, §14, §3, §4, §5, §6, §7, §8

S. aureus NRS 17 GISA = test: MIC in the presence of human serum (serum reversal); assay type: cell-based, Staphylococcus aureus; conditions: 50% serum
From the text: To obtain some initial insight into the apparent disparity between in vitro and in vivo results, we repeated the MIC experiments against four selected Gram‐positive strains in the presence of 10 % or 50 % human serum (Table S3). Pt1 and Pt2 maintained some antibacterial activity against B. subtilis in the presence of 10 % serum, but a complete loss of activity was observed against MRSA and GISA (50 % serum), and VRE (10 % serum). […] Systemic administration is therefore unlikely to be a suitable administration route for this class of compounds unless an alternative formulation that can prevent serum binding (e. g. by lipid or nanoparticle encapsulation) can be found. […] Further in vivo studies should therefore focus on more suitable disease models. […]
as §5, §11, §12
(§15) The resultant mid-log phase cultures were diluted
(§16) Gram-negative and Gram-positive bacteria, respectively.
(§17) final concentration range of 0.8 – 100 µM.
inhibitors as positive control. […]

[9] = tested on: Enterococcus faecalis ATCC 29212, control strain; test: Antibacterial MIC assay, Gram-positive panel; assay type: cell-based; conditions: n=4
Procedure: as §2, §3, §4, §5, §6, §7, §8

[10] = tested on: Enterococcus faecalis Clinical Isolate, VRE (VanB); test: Antibacterial MIC assay, Gram-positive panel; assay type: cell-based; conditions: n=4
Procedure: as §2, §3, §4, §5, §6, §7, §8

[11] = tested on: Staphylococcus epidermidis NRS 60, VISE; test: Antibacterial MIC assay, Gram-positive panel; assay type: cell-based; conditions: n=4
Procedure: as §2, §3, §4, §5, §6, §7, §8

[12] = tested on: Enterococcus faecium ATCC 51559, MDR, VRE (VanA); test: Antibacterial MIC assay, Gram-positive panel; assay type: cell-based; conditions: n=2
Procedure: as §2, §3, §4, §5, §6, §7, §8

[13] = tested on: Enterococcus faecium Clinical Isolate, VRE (VanA); test: Antibacterial MIC assay, Gram-positive panel; assay type: cell-based; conditions: n=4
Procedure: as §2, §3, §4, §5, §6, §7, §8

[14] = tested on: Enterococcus faecium ATCC 35667, type strain; test: Antibacterial MIC assay, Gram-positive panel; assay type: cell-based; conditions: n=4
Procedure: as §2, §3, §4, §5, §6, §7, §8

[15] = tested on: Bacillus subtilis ATCC 6051, type strain; test: Antibacterial MIC assay, Gram-positive panel; assay type: cell-based; conditions: n=2
Procedure: as §2, §3, §4, §5, §6, §7, §8

human red blood cells = test: Haemolysis assay; assay type: cell-based; conditions: for Haemolysis HC10: concentration inducing 10 % haemolysis; for Haemolysis HC50: concentration inducing 50 % haemolysis
Procedure: As part of the CO‐ADD screening, all compounds that show any activity against a microbial strain are evaluated for their cytotoxicity against human embryonic kidney cells (HEK‐293) and for haemolysis against human red blood cells. None of the compounds tested for cytotoxicity (Pt1‐9 and Pd1) caused any significant cell death up to concentrations of 100 μM. […] We have also observed higher IC50 values for the methylated complexes Pt3 and Pt4 against HeLa cells in previous work.[16]
as §15, §16, §17
inhibitors as positive control.
Tamoxifen (Sigma T5648) was used
as internal control on each plate.
in a Neubauer haemocytometer.
incubated for 1 h at 37 °C, without shaking.
HC10 and HC50 (concentration at which 10%
for top, bottom and slope using Prism 8. […]

Compound	MIC Ec [1]	MIC Pa [2]	MIC Ab [3]	MIC Cn [4]	MIC Ca [5]	MIC Kp [6]	MIC in the presence of human serum (S. aureus NRS 17 GISA)	Haemolysis HC10 (human red blood cells)	Haemolysis HC50 (human red blood cells)	MIC ([7]; Table 2 panel)	MIC ([8]; Table 2 panel)	MIC ([9]; Table 2 panel)	MIC ([10]; Table 2 panel)	MIC ([11]; Table 2 panel)	MIC ([12]; Table 2 panel)	MIC ([13]; Table 2 panel)	MIC ([14]; Table 2 panel)	MIC ([15]; Table 2 panel)	further results
CCC1=CCCC=CCC1.[CH3][Pt][Cl] [Pt7]	>20 µM	>20 µM	>20 µM	20 µM	10 µM	>20 µM	> 200 µM	10.27 µM	52.12 µM	–	–	–	–	–	–	–	–	–	MIC ([7]; Table S1 panel): > 200 µM; MIC ([8]; Table S1 panel): > 200 µM; MIC ([9]; Table S1 panel): > 200 µM; MIC ([10]; Table S1 panel): > 200 µM; MIC ([11]; Table S1 panel): > 200 µM; MIC ([12]; Table S1 panel): 200 µM; MIC ([13]; Table S1 panel): > 200 µM; MIC ([14]; Table S1 panel): > 200 µM; MIC ([15]; Table S1 panel): > 200 µM
C1=C\CC/C=C\CC/1.[Cl-].[Cl-].[Pt+2] [Pt1, Pt(COD)Cl2]	>20 µM	>20 µM	>20 µM	1.25 to 5 µM	10 to 20 µM	>20 µM	> 200 µM	>100 µM	>100 µM	12.5^[a] μg/mL	3.125^[a] μg/mL	50–100^[a] μg/mL	25^[a] μg/mL	3.125^[a] μg/mL	12.5^[b] μg/mL	25–50^[a] μg/mL	25^[a] μg/mL	6.25^[b] μg/mL	–
C1=CCC/C=C\CC1.[I][Pt][I] [Pt2, Pt(COD)I2]	>20 µM	>20 µM	>20 µM	2.5 µM	10 µM	>20 µM	> 200 µM	>100 µM	>100 µM	6.25^[a] μg/mL	1.56–3.125^[a] μg/mL	25–50^[a] μg/mL	12.5–25^[a] μg/mL	6.25^[a] μg/mL	12.5–25^[b] μg/mL	25^[a] μg/mL	25^[a] μg/mL	3.125–6.25^[b] μg/mL	–
